Consider ten molecules from ChEMBL document CHEMBL1201862, “PubChem BioAssay data set” (2004).

Some test systems named below: 786-0; A549; ACHN; CCRF-CEM; HOP-62; HT-29; MDA-MB-231; MDA-N; MOLT-4; Malme-3M; NCI-H23; OVCAR-4; OVCAR-8; RPMI-8226; SK-MEL-28; SK-MEL-2; SNB-75; U-251; UO-31.
Common to all, as to experiment: NCI anticancer screen, dose series, 48 h

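Grown in 96-well plates, cells were treated for 48 hours with each compound at five concentrations. Insufficient inhibition: endpoint recorded as highest concentration tested. GI50 marks 50% less growth.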 Calls of active or inactive are those of the source. Rule as the data show it: active = GI50 up to about 1.1 µM and inactive = higher.

With `O=C1C=CC(=O)c2c(O)c(N3CCN(c4ccccn4)CC3)cc(O)c21`, the GI50 was 7.24 µM (inactive) with 786-0; 5.85 µM (inactive) with A549; 6.89 µM (inactive) in the experiment on ACHN; 3.07 µM (inactive) with CCRF-CEM; 21 µM (inactive) in the experiment with HOP-62; 4.3 µM (inactive) in the experiment with HT-29. Further, the GI50 in the experiment with MDA-MB-231 is 13 µM (inactive); with MDA-N it was 2.41 µM (inactive); with MOLT-4, 4.22 µM (inactive); in the experiment with Malme-3M, 0.553 µM (active); in the experiment on NCI-H23 it was 3.4 µM (inactive); in the experiment on OVCAR-4, 11.6 µM (inactive). Also, the GI50 was 5.69 µM (inactive) in the experiment with OVCAR-8; 4.68 µM (inactive) in the experiment with RPMI-8226; 13.7 µM (inactive) with SK-MEL-28; 5.92 µM (inactive) in the experiment with SK-MEL-2; 7.41 µM (inactive) with SNB-75; 5.64 µM (inactive) in the experiment with U-251. In addition, in the experiment on UO-31, the GI50 was 8.28 µM (inactive).
On to `O=C(O)c1c(-c2c3ccc(=O)cc-3oc3cc(O)ccc23)cc2ccccc2c1-c1ccccc1`, for which the GI50 was > 100 µM (inactive) in the experiment on 786-0; > 100 µM (inactive) in the experiment with A549; > 100 µM (inactive) with ACHN; > 20.6 µM (inactive) in the experiment with CCRF-CEM; > 100 µM (inactive) in the experiment on HOP-62; > 100 µM (inactive) in the experiment on HT-29. Further, the GI50 is > 100 µM (inactive) in the experiment on MDA-MB-231; > 100 µM (inactive) with MDA-N; 4.85 µM (inactive) with MOLT-4; > 100 µM (inactive) with Malme-3M; > 100 µM (inactive) in the experiment with NCI-H23; > 100 µM (inactive) with OVCAR-4. Also, the GI50 with OVCAR-8 is > 100 µM (inactive); with RPMI-8226 it was > 100 µM (inactive); with SK-MEL-28 it was > 100 µM (inactive); with SK-MEL-2, > 100 µM (inactive); in the experiment on SNB-75, 41.5 µM (inactive); in the experiment on U-251, > 100 µM (inactive). Also, the GI50 in the experiment on UO-31 was > 100 µM (inactive).
`Nc1cc2nc(-c3ccccc3)cn2cn1`: the GI50 was > 100 µM (inactive) in the experiment on 786-0; > 100 µM (inactive) in the experiment on A549; > 100 µM (inactive) in the experiment with ACHN; 86.5 µM (inactive) with CCRF-CEM; > 100 µM (inactive) with HOP-62; 47.2 µM (inactive) with HT-29. The GI50 was > 100 µM (inactive) in the experiment on MDA-MB-231; > 100 µM (inactive) with MDA-N; > 100 µM (inactive) with MOLT-4; 20.2 µM (inactive) with Malme-3M; > 100 µM (inactive) in the experiment on NCI-H23; > 100 µM (inactive) with OVCAR-4. Also, the GI50 in the experiment on OVCAR-8 was > 100 µM (inactive); in the experiment with RPMI-8226, 65 µM (inactive); in the experiment with SK-MEL-28, > 100 µM (inactive); with SK-MEL-2 it was > 100 µM (inactive); with SNB-75, 40.2 µM (inactive); in the experiment on U-251, > 100 µM (inactive). Also, the GI50 with UO-31 was 32.4 µM (inactive).
As for `COc1ccc(/C=C2\N=C(N3CCCC(CO)C3)NC2=O)cc1` (stereo not given), the GI50 with 786-0, in the experiment with A549, with ACHN, in the experiment with CCRF-CEM, in the experiment on HOP-62 and in the experiment on HT-29 was > 100 µM (inactive) throughout. For the same molecule, the GI50 with MDA-MB-231, in the experiment on MDA-N, with MOLT-4, with Malme-3M, in the experiment with NCI-H23 and in the experiment on OVCAR-4 was > 100 µM (inactive) each time. Besides, the GI50 in the experiment with OVCAR-8, with RPMI-8226, with SK-MEL-28, in the experiment with SK-MEL-2, in the experiment on SNB-75 and in the experiment on U-251 was > 100 µM (inactive) each time. Further, the GI50 in the experiment on UO-31 is > 100 µM (inactive).
Turning to `COc1cc(/C=C2\Sc3scc(-c4cccc([N+](=O)[O-])c4)[n+]3C2=O)cc(OC)c1OC`, the GI50 in the experiment on 786-0 was 10.4 µM (inactive); with A549 it was 19.2 µM (inactive); in the experiment on ACHN, 14.9 µM (inactive); in the experiment on CCRF-CEM it was 44.9 µM (inactive); in the experiment on HOP-62, 16.6 µM (inactive); with HT-29, 13.1 µM (inactive). Further, the GI50 was 7.29 µM (inactive) in the experiment on MDA-MB-231; 11.9 µM (inactive) with MDA-N; 3.21 µM (inactive) in the experiment on MOLT-4; 13.8 µM (inactive) in the experiment on Malme-3M; 15.1 µM (inactive) with NCI-H23; 15.3 µM (inactive) with OVCAR-4. Moreover, the GI50 in the experiment on OVCAR-8 is 15.5 µM (inactive); in the experiment with RPMI-8226, 4.06 µM (inactive); in the experiment with SK-MEL-28 it was 16.1 µM (inactive); with SK-MEL-2 it was 17 µM (inactive); with SNB-75, 1.47 µM (inactive); in the experiment on U-251, 11.6 µM (inactive). Besides, the GI50 with UO-31 was 6.37 µM (inactive).
Take `Cc1cccc2c1C(=O)C(C1OC(=O)c3ccccc31)C2` (stereo not given): the GI50 with 786-0, in the experiment on A549, with ACHN, in the experiment on CCRF-CEM, in the experiment with HOP-62 and in the experiment with HT-29 was > 100 µM (inactive) throughout. Further, the GI50 with MDA-MB-231, in the experiment on MDA-N, with MOLT-4, in the experiment on Malme-3M, in the experiment with NCI-H23 and in the experiment with OVCAR-4 was > 100 µM (inactive) each time. Further, the GI50 is > 100 µM (inactive) with OVCAR-8; 92.5 µM (inactive) in the experiment with RPMI-8226; > 100 µM (inactive) in the experiment with SK-MEL-28; > 100 µM (inactive) with SK-MEL-2; > 100 µM (inactive) in the experiment with SNB-75; 61 µM (inactive) in the experiment on U-251. Moreover, in the experiment with UO-31, the GI50 was > 100 µM (inactive).
Regarding `CN(CCc1ccc(Br)cc1)CCN1CCCCC1`, the GI50 is 30.1 µM (inactive) with 786-0; 43.4 µM (inactive) with A549; 62.5 µM (inactive) in the experiment with ACHN; 16.4 µM (inactive) with CCRF-CEM; 31.8 µM (inactive) in the experiment on HOP-62; 12.7 µM (inactive) with HT-29. The GI50 was 17.3 µM (inactive) in the experiment on MDA-MB-231; 22.6 µM (inactive) in the experiment with MDA-N; 31 µM (inactive) in the experiment with MOLT-4; 22.8 µM (inactive) with Malme-3M; 31.9 µM (inactive) in the experiment on NCI-H23; 54.8 µM (inactive) with OVCAR-4. The GI50 in the experiment with OVCAR-8 was 31.4 µM (inactive); with RPMI-8226 it was 62.5 µM (inactive); in the experiment on SK-MEL-28, 20.4 µM (inactive); in the experiment on SK-MEL-2, 24.4 µM (inactive); in the experiment on SNB-75 it was 22.3 µM (inactive); in the experiment on U-251, 39.5 µM (inactive). Moreover, the GI50 in the experiment with UO-31 is 36.1 µM (inactive).
As for `C=CC1(c2ccc(OC)cc2)OCCCO1`, the GI50 with 786-0, in the experiment with A549, with ACHN, in the experiment with CCRF-CEM, with HOP-62 and with HT-29 was > 100 µM (inactive) throughout. Besides, the GI50 in the experiment on MDA-MB-231, in the experiment on MDA-N, with MOLT-4, with Malme-3M, with NCI-H23 and in the experiment with OVCAR-4 was > 100 µM (inactive) in each case. The GI50 with OVCAR-8, in the experiment with RPMI-8226, with SK-MEL-28, in the experiment with SK-MEL-2, in the experiment on SNB-75 and in the experiment on U-251 was > 100 µM (inactive) each time. In the experiment with UO-31, the GI50 was > 100 µM (inactive).
Consider `CC(=O)OCC1OC(OC2CC3C(C)(C)C(=O)CC[C@]3(C)C3CC[C@]45C[C@]4(CCC5[C@@H](C)CC(O)C(O)C(C)(C)O)[C@]23C)C(O)C(O)C1O` (stereo not given in full), for which the GI50 in the experiment on 786-0 was 13.6 µM (inactive); in the experiment with A549 it was 17.3 µM (inactive); with ACHN, 16.4 µM (inactive); with CCRF-CEM, 4.13 µM (inactive); in the experiment with HOP-62, 19.3 µM (inactive); with HT-29 it was 4.23 µM (inactive). For the same molecule, the GI50 in the experiment with MDA-MB-231 was 6.44 µM (inactive); in the experiment with MDA-N, 10.7 µM (inactive); with MOLT-4, 3.71 µM (inactive); with Malme-3M, 14.1 µM (inactive); in the experiment with NCI-H23, 17.5 µM (inactive); with OVCAR-4 it was 12.7 µM (inactive). The GI50 with OVCAR-8 is 13.5 µM (inactive); in the experiment on RPMI-8226, 3.56 µM (inactive); with SK-MEL-28 it was 3.24 µM (inactive); in the experiment with SK-MEL-2, 4.93 µM (inactive); with SNB-75, 5.35 µM (inactive); with U-251 it was 8.13 µM (inactive). Besides, the GI50 with UO-31 is 18.2 µM (inactive).
With `C=C(C)[C@@]12C[C@H](OC(=O)[C@H](O)[C@@H](NC(=O)c3ccccc3)c3ccccc3)C(C)=C1[C@@H](OC(C)=O)C(=O)[C@@]1(C)C([C@@H]2OC(=O)c2cc(F)cc(F)c2)C2(OC(C)=O)CO[C@@H]2C[C@@H]1O` (stereo not given in full), the GI50 in the experiment with 786-0 was 0.0853 µM (active); in the experiment on A549, 0.0752 µM (active); in the experiment with ACHN it was 0.555 µM (active); in the experiment with CCRF-CEM, 0.0367 µM (active); with HOP-62, 0.123 µM (active); in the experiment on HT-29 it was 0.0278 µM (active). Besides, the GI50 in the experiment with MDA-MB-231 is 0.21 µM (active); in the experiment with MDA-N it was 0.0133 µM (active); with MOLT-4 it was 0.0428 µM (active); with Malme-3M, 0.461 µM (active); in the experiment with NCI-H23, 0.152 µM (active); in the experiment with OVCAR-4 it was 2.38 µM (inactive). Also, the GI50 with OVCAR-8 was 0.065 µM (active); with RPMI-8226, 0.0236 µM (active); in the experiment on SK-MEL-28, 0.363 µM (active); in the experiment on SK-MEL-2, 0.144 µM (active); in the experiment with SNB-75, 0.0966 µM (active); in the experiment with U-251, 0.0822 µM (active). For the same molecule, the GI50 in the experiment with UO-31 was 0.973 µM (active).
